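Assay format: 96-well plates, 48-hour exposure. Here, GI50 denotes the concentration required for 50% inhibition of growth. The concentration for full growth arrest is given as TGI.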
Legend:
Experiment in all cases: DTP human tumour cell line panel, 48 h
SN12C renal = test system: SN12C renal
IGROV1 ovarian = test system: IGROV1 ovarian
ACHN renal = test system: ACHN renal
HOP-92 NSCLC = test system: HOP-92 NSCLC
PC-3 prostate = test system: PC-3 prostate
SF-539 CNS = test system: SF-539 CNS
RPMI-8226 leukemia = test system: RPMI-8226 leukemia
COLO 205 colon = test system: COLO 205 colon
SR leukemia = test system: SR leukemia
U251 CNS = test system: U251 CNS
M14 melanoma = test system: M14 melanoma
RXF 393 renal = test system: RXF 393 renal
MALME-3M melanoma = test system: MALME-3M melanoma
SK-MEL-5 melanoma = test system: SK-MEL-5 melanoma
OVCAR-5 ovarian = test system: OVCAR-5 ovarian
OVCAR-8 ovarian = test system: OVCAR-8 ovarian
UACC-257 melanoma = test system: UACC-257 melanoma
OVCAR-3 ovarian = test system: OVCAR-3 ovarian
T-47D breast = test system: T-47D breast
OVCAR-4 ovarian = test system: OVCAR-4 ovarian
SF-268 CNS = test system: SF-268 CNS
MCF7 breast = test system: MCF7 breast
BT-549 breast = test system: BT-549 breast
K-562 leukemia = test system: K-562 leukemia
UO-31 renal = test system: UO-31 renal
SW-620 colon = test system: SW-620 colon
MOLT-4 leukemia = test system: MOLT-4 leukemia
SK-MEL-28 melanoma = test system: SK-MEL-28 melanoma
TK-10 renal = test system: TK-10 renal
HT29 colon = test system: HT29 colon
NCI/ADR-RES ovarian = test system: NCI/ADR-RES ovarian
EKVX NSCLC = test system: EKVX NSCLC
A498 renal = test system: A498 renal
CAKI-1 renal = test system: CAKI-1 renal
SNB-19 CNS = test system: SNB-19 CNS
DU-145 prostate = test system: DU-145 prostate
SNB-75 CNS = test system: SNB-75 CNS
HOP-62 NSCLC = test system: HOP-62 NSCLC
MDA-MB-435 = test system: MDA-MB-435
NCI-H522 lung = test system: NCI-H522 lung
MDA-MB-231 breast = test system: MDA-MB-231 breast
SF-295 CNS = test system: SF-295 CNS
HCC-2998 colon = test system: HCC-2998 colon
HCT-116 colon = test system: HCT-116 colon
HL-60(TB) leukemia = test system: HL-60(TB) leukemia
CCRF-CEM leukemia = test system: CCRF-CEM leukemia
HCT-15 colon = test system: HCT-15 colon
SK-OV-3 ovarian = test system: SK-OV-3 ovarian
HS 578T breast = test system: HS 578T breast
786-0 renal = test system: 786-0 renal
NCI-H460 lung = test system: NCI-H460 lung
A549 NSCLC = test system: A549 NSCLC
KM12 colon = test system: KM12 colon
UACC-62 melanoma = test system: UACC-62 melanoma
NCI-H226 lung = test system: NCI-H226 lung
SK-MEL-2 melanoma = test system: SK-MEL-2 melanoma

Fc1ccc(-c2nc(C(Cl)Cl)nc3cc(-c4ccccc4)nn23)cc1 showed a GI50 (SN12C renal) of over 100 µM, a TGI (SN12C renal) of over 100 µM and a GI50 (IGROV1 ovarian) of over 100 µM. For the same molecule, the TGI (IGROV1 ovarian) was over 100 µM, the GI50 (ACHN renal) was 3.58 µM and the TGI (ACHN renal) was over 100 µM. The GI50 (HOP-92 NSCLC) was over 100 µM, the TGI (HOP-92 NSCLC) was over 100 µM and the GI50 (PC-3 prostate) was over 100 µM. It also gave a TGI (PC-3 prostate) of over 100 µM, a GI50 (SF-539 CNS) of over 100 µM and a TGI (SF-539 CNS) of over 100 µM. The GI50 (RPMI-8226 leukemia) was over 100 µM, the TGI (RPMI-8226 leukemia) was over 100 µM and the GI50 (COLO 205 colon) was 3.67 µM. It also gave a TGI (COLO 205 colon) of 21.9 µM, a GI50 (SR leukemia) of 5.23 µM and a TGI (SR leukemia) of over 100 µM. The GI50 (U251 CNS) was 5.79 µM, the TGI (U251 CNS) was over 100 µM and the GI50 (M14 melanoma) was over 100 µM. It also gave a TGI (M14 melanoma) of over 100 µM, a GI50 (RXF 393 renal) of 3.79 µM and a TGI (RXF 393 renal) of 18.5 µM. For the same molecule, the GI50 (MALME-3M melanoma) was over 100 µM, the TGI (MALME-3M melanoma) was over 100 µM and the GI50 (SK-MEL-5 melanoma) was over 100 µM. The TGI (SK-MEL-5 melanoma) was over 100 µM, the GI50 (OVCAR-5 ovarian) was 22.3 µM and the TGI (OVCAR-5 ovarian) was over 100 µM. For the same molecule, the GI50 (OVCAR-8 ovarian) was 7.33 µM, the TGI (OVCAR-8 ovarian) was over 100 µM and the GI50 (UACC-257 melanoma) was over 100 µM. The TGI (UACC-257 melanoma) was over 100 µM, the GI50 (OVCAR-3 ovarian) was 6.13 µM and the TGI (OVCAR-3 ovarian) was over 100 µM. The GI50 (T-47D breast) was over 100 µM, the TGI (T-47D breast) was over 100 µM and the GI50 (OVCAR-4 ovarian) was 7.21 µM. It also gave a TGI (OVCAR-4 ovarian) of over 100 µM, a GI50 (SF-268 CNS) of over 100 µM and a TGI (SF-268 CNS) of over 100 µM. The GI50 (MCF7 breast) was 7.36 µM, the TGI (MCF7 breast) was over 100 µM and the GI50 (BT-549 breast) was over 100 µM. The TGI (BT-549 breast) was over 100 µM, the GI50 (K-562 leukemia) was 15.9 µM and the TGI (K-562 leukemia) was over 100 µM. The GI50 (UO-31 renal) was over 100 µM, the TGI (UO-31 renal) was over 100 µM and the GI50 (SW-620 colon) was 5.05 µM. For the same molecule, the TGI (SW-620 colon) was over 100 µM, the GI50 (MOLT-4 leukemia) was 7.81 µM and the TGI (MOLT-4 leukemia) was over 100 µM. For the same molecule, the GI50 (SK-MEL-28 melanoma) was over 100 µM, the TGI (SK-MEL-28 melanoma) was over 100 µM and the GI50 (TK-10 renal) was over 100 µM. For the same molecule, the TGI (TK-10 renal) was over 100 µM, the GI50 (HT29 colon) was 3.92 µM and the TGI (HT29 colon) was over 100 µM. It also gave a GI50 (NCI/ADR-RES ovarian) of 6.48 µM, a TGI (NCI/ADR-RES ovarian) of over 100 µM and a GI50 (EKVX NSCLC) of 7.79 µM. It also gave a TGI (EKVX NSCLC) of over 100 µM, a GI50 (A498 renal) of over 100 µM and a TGI (A498 renal) of over 100 µM. It also gave a GI50 (CAKI-1 renal) of 16 µM, a TGI (CAKI-1 renal) of over 100 µM and a GI50 (SNB-19 CNS) of 10.5 µM. The TGI (SNB-19 CNS) was over 100 µM, the GI50 (DU-145 prostate) was 2.46 µM and the TGI (DU-145 prostate) was 6.55 µM. For the same molecule, the GI50 (SNB-75 CNS) was over 100 µM, the TGI (SNB-75 CNS) was over 100 µM and the GI50 (HOP-62 NSCLC) was 12.1 µM. The TGI (HOP-62 NSCLC) was over 100 µM, the GI50 (MDA-MB-435) was over 100 µM and the TGI (MDA-MB-435) was over 100 µM. The GI50 (NCI-H522 lung) was 7.36 µM, the TGI (NCI-H522 lung) was over 100 µM and the GI50 (MDA-MB-231 breast) was 35.4 µM. The TGI (MDA-MB-231 breast) was over 100 µM, the GI50 (SF-295 CNS) was 28.2 µM and the TGI (SF-295 CNS) was over 100 µM. The GI50 (HCC-2998 colon) was 2.27 µM, the TGI (HCC-2998 colon) was 6.21 µM and the GI50 (HCT-116 colon) was 38.5 µM. For the same molecule, the TGI (HCT-116 colon) was over 100 µM, the GI50 (HL-60(TB) leukemia) was 3.79 µM and the TGI (HL-60(TB) leukemia) was over 100 µM. The GI50 (CCRF-CEM leukemia) was over 100 µM, the TGI (CCRF-CEM leukemia) was over 100 µM and the GI50 (HCT-15 colon) was 4.64 µM. It also gave a TGI (HCT-15 colon) of over 100 µM, a GI50 (SK-OV-3 ovarian) of 10.7 µM and a TGI (SK-OV-3 ovarian) of over 100 µM. The GI50 (HS 578T breast) was over 100 µM, the TGI (HS 578T breast) was over 100 µM and the GI50 (786-0 renal) was over 100 µM. It also gave a TGI (786-0 renal) of over 100 µM, a GI50 (NCI-H460 lung) of 3.63 µM and a TGI (NCI-H460 lung) of over 100 µM. For the same molecule, the GI50 (A549 NSCLC) was 3.72 µM, the TGI (A549 NSCLC) was 33.8 µM and the GI50 (KM12 colon) was 15.9 µM. The TGI (KM12 colon) was over 100 µM, the GI50 (UACC-62 melanoma) was over 100 µM and the TGI (UACC-62 melanoma) was over 100 µM. It also gave a GI50 (NCI-H226 lung) of over 100 µM, a TGI (NCI-H226 lung) of over 100 µM and a GI50 (SK-MEL-2 melanoma) of over 100 µM. It also gave a TGI (SK-MEL-2 melanoma) of over 100 µM.

Reference: PubChem BioAssay (NCI)
